This is an account of results in patent US12643912B2, “Macrocyclic compounds, a process for their preparation and pharmaceutical compositions containing them” (LES LABORATOIRES SERVIER, priority 2020, dated 2026).

Assay [1] deals with Nrf2 (Keap1-NRF2 nuclear translocation). Nature of the assay: U2OS translocation assay (PathHunter U2OS Keap1-NRF2 Nuclear Translocation Cell Line). The class given is cell-based. The essentials:
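PathHunter U2OS line expressing Nrf2-enzyme-donor fusion and nuclear acceptor enzyme, 7 500 cells/well in Opti-MEM, 1% FBS. Compounds incubated 3 h at 37° C. Luminescence after 60 min with detection reagent, normalized between 1% DMSO and 10 μM andrographolide.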

A further assay addresses T1, Keap1 (A321-C624) (h) (Homo sapiens, UniProt Q14145).
T1 construct: His-Thromb-KEAP1(A321-C624) acquired from Novalix (batch PU-P01) was immobilized covalently by amine coupling; His tag (N); thrombin cleavage site (Thromb) (N); purchased Novalix batch PU-P01
Briefly: Surface Plasmon Resonance binding assay to Kelch domain of KEAP1. Conditions: Biacore T200, 25° C., immobilized His-Thromb-KEAP1(A321-C624), single cycle kinetics, KD=kd/ka from 1:1 fit; read-out: Keap1 (A321-C624) (h) direct/SPR (KD). As for the experimental part: EXAMPLE 85: SURFACE PLASMON RESONANCE
Binding assay to Kelch domain of KEAP1 was performed by Surface Plasmon Resonance (SPR) on a Biacore T200 (GE Healthcare) at 25° C. using CM5 chip. His-Thromb-KEAP1(A321-C624) acquired from Novalix (batch PU-P01) was immobilized covalently by amine coupling using standard wizard protocol, at a concentration of 20 μg/mL in sodium acetate pH 5.5. The ligand was captured until 1250 RU was reached. Amine blank is used as the reference flow cell. Binding of analyte to the ligand was monitored in real time with associations of 180 seconds and a dissociation of 720 seconds. Association (ka) and dissociation (kd) rates were fitted with a simple 1:1 kinetic interaction model using Biacore T200 Evaluation Software (GE Healthcare). The equilibrium constant (KD=kd/ka) was calculated from these fitted parameters. […] The Biacore binding assay was performed with a flowrate of 50 μL/min using a running buffer of 10 mM HEPES (pH 7.4), 150 mM NaCl, 3 mM EDTA, 1 mM TCEP, 0.05% P20,5% DMSO. Double subtraction was used by subtracting both reference flow cell and previous blank cycle (with running buffer). Solvent correction was applied to correct DMSO bulk effect.
Background: Surface plasmon resonance follows binding to a sensor surface in real time, without labels.

Setting [2] is: read-out: CELLULAR U2OS EC50, U2OS Keap1-NRF2 nuclear translocation cells, 3 h incubation, luminescence, normalized between 1% DMSO and 10 μM andrographolide.

Where two headings read alike, the source gives them in different places.

T1 sequence (Q14145 321-624): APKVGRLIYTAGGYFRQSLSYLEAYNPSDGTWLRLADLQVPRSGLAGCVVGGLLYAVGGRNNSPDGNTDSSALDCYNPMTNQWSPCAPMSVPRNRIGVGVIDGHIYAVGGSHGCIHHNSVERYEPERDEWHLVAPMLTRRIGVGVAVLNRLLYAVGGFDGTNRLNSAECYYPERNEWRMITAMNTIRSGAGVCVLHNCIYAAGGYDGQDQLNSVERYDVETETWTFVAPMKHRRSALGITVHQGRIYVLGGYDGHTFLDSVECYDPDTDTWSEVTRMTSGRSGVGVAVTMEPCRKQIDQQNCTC

What is called EC50 is the concentration needed to bring the measured effect to its halfway point. `Cc1ccc2cc1CN1Cc3cc(ccc3OS1(=O)=O)OCCCCCCn1nnc3c(C)c(ccc31)C2CC(=O)O` (single isomer, unassigned) [Example 11b, [4,33-Dimethyl-29,29-dioxo-23,28-dioxa-29λ^6-thia-1,14,15,16-tetraazahexacyclo[22.5.3.1^3,70.1^9,130.0^12,160.0^27,31]tetratriaconta-3(34),4,6,9(33),10,12,14,24,26,31-decaen-8-yl]acetic acid]: in assay [1] (setting [2]), the EC50 was determined as 13.1 nM. Besides, the Kd on Keap1 (A321-C624) (h) worked out at 0.778 nM.
As to `Cc1c2ccc3c1nnn3CCCCOc1ccc3c(c1)CN(Cc1cc(cc(C(F)(F)F)c1)C2CC(=O)O)S(=O)(=O)O3` (single isomer, unassigned) [Example 12a, [31-Methyl-27,27-dioxo-5-(trifluoromethyl)-21,26-dioxa-27λ^6-thia-1,14,15,16-tetraazahexacyclo[20.5.3.1^3,70.1^9,130.0^12,160.0^25,29]dotriaconta-3(32),4,6,9(31),10,12,14,22,24,29-decaen-8-yl]acetic acid], the EC50 in assay [1] (Homo sapiens, U2OS, 3 h, read-out: CELLULAR U2OS EC50 (nM), U2OS Keap1-NRF2 nuclear translocation cells, 3 h incubation, luminescence, normalized between 1% DMSO and 10 μM andrographolide) was found to be 3160 nM. In addition, the Kd on Keap1 (A321-C624) (h) was determined as 3070 nM.
As to `Cc1c2ccc3c1nnn3CCCCOc1ccc3c(c1)CN(Cc1cc(cc(C(F)(F)F)c1)C2CC(=O)O)S(=O)(=O)O3` (single isomer, unassigned) [Example 12b, [31-Methyl-27,27-dioxo-5-(trifluoromethyl)-21,26-dioxa-27λ^6-thia-1,14,15,16-tetraazahexacyclo[20.5.3.1^3,70.1^9,130.0^12,160.0^25,29]dotriaconta-3(32),4,6,9(31),10,12,14,22,24,29-decaen-8-yl]acetic acid], the EC50 in assay [1] (setting [2]) was over 3160 nM. In addition, the Kd on Keap1 (A321-C624) (h) amounted to 2920 nM.
With `Cc1ccc2cc1CN1Cc3cc(cc(C)c3OS1(=O)=O)OCCCCn1nnc3c(C)c(ccc31)C2CC(=O)O` (single isomer, unassigned) [Example 15a, [4,24,31-Trimethyl-27,27-dioxo-21,26-dioxa-27λ^6-thia-1,14,15,16-tetraazahexacyclo[20.5.3.1^3,70.1^9,130.0^12,160.0^25,29]dotriaconta-3(32),4,6,9(31),10,12,14,22,24,29-decaen-8-yl]acetic acid], in assay [1] (setting [2]), the EC50 came out at 57.9 nM. In addition, on Keap1 (A321-C624) (h), the Kd was found to be 1.92 nM.
In the same order, the values of `Cc1ccc2cc1CN1Cc3cc(cc(C)c3OS1(=O)=O)OCCCCn1nnc3c(C)c(ccc31)C2CC(=O)O` (single isomer, unassigned) [Example 15b, [4,24,31-Trimethyl-27,27-dioxo-21,26-dioxa-27λ^6-thia-1,14,15,16-tetraazahexacyclo[20.5.3.1^3,70.1^9,130.0^12,160.0^25,29]dotriaconta-3(32),4,6,9(31),10,12,14,22,24,29-decaen-8-yl]acetic acid] are 381 nM and 4.41 nM.
For `COc1cc2cc3c1OS(=O)(=O)N(Cc1cc(ccc1C)C(CC(=O)O)c1ccc4c(nnn4CCCCO2)c1C)C3` (single isomer, unassigned) [Example 16a, [24-Methoxy-4,31-dimethyl-27,27-dioxo-21,26-dioxa-27λ^6-thia-1,14,15,16-tetraazahexacyclo[20.5.3.1^3,70.1^9,130.0^12,160.0^25,29]dotriaconta-3(32),4,6,9(31),10,12,14,22,24,29-decaen-8-yl]acetic acid], in that order: 871 nM and 4.03 nM.
In the same order, the values of `COc1cc2cc3c1OS(=O)(=O)N(Cc1cc(ccc1C)C(CC(=O)O)c1ccc4c(nnn4CCCCO2)c1C)C3` (single isomer, unassigned) [Example 16b, [24-Methoxy-4,31-dimethyl-27,27-dioxo-21,26-dioxa-27λ^6-thia-1,14,15,16-tetraazahexacyclo[20.5.3.1^3,70.1^9,130.0^12,160.0^25,29]dotriaconta-3(32),4,6,9(31),10,12,14,22,24,29-decaen-8-yl]acetic acid] are 108 nM and 1.73 nM.
